Experimental data published in ChEMBL document CHEMBL1151324, “Cytotoxic geranyl stilbenes from Macaranga schweinfurthii” (J Nat Prod, 1998).
In brackets after ≈: the same amount, converted by molar mass.

Tests used:
RPMI-8226 = assay: Cytotoxicity against human RPMI8226 cells; assay type: functional
SR = assay: Cytotoxicity against human SR cells; assay type: functional
RXF 393 = assay: Cytotoxicity against human RXF393 cells; assay type: functional
SK-MEL-28 = assay: Cytotoxicity against human SK-MEL-28 cells; assay type: functional
M14 = assay: Cytotoxicity against human M14 cells; assay type: functional
Malme-3M = assay: Cytotoxicity against human MALME-3M cells; assay type: functional
A549 [1] = assay: Cytotoxicity against human A549 cells after 1 hr compound washout; assay type: functional, cell-based; conditions: A549, 1 h
HCC 2998 = assay: Cytotoxicity against human HCC2998 cells; assay type: functional
NCI-H23 = assay: Cytotoxicity against human NCI-H23 cells; assay type: functional
MDA-N = assay: Cytotoxicity against human MDA-N cells; assay type: functional
[2] = Cytotoxicity against human Hs 578T cells; assay type: functional
SW-620 = assay: Cytotoxicity against human SW620 cells; assay type: functional
MCF7 [3] = assay: Cytotoxicity against human doxorubicin-resistant MCF7 cells; assay type: functional
DU-145 = assay: Cytotoxicity against human DU145 cells; assay type: functional
U-251 = assay: Cytotoxicity against human U251 cells; assay type: functional
SF-295 [4] = assay: Cytotoxicity against human SF295 cells after 48 hrs; assay type: functional, cell-based; conditions: SF-295, 48 h
NCI-H226 = assay: Cytotoxicity against human NCI-H226 cells; assay type: functional
TK-10 = assay: Cytotoxicity against human TK10 cells; assay type: functional
NCI-H522 = assay: Cytotoxicity against human NCI-H522 cells; assay type: functional
MDA-MB-231 = assay: Cytotoxicity against human MDA-MB-231 cells; assay type: functional
SF-295 [5] = assay: Cytotoxicity against human SF295 cells after 1 hr; assay type: functional, cell-based; conditions: SF-295, 1 h
HOP-62 = assay: Cytotoxicity against human HOP62 cells; assay type: functional
LOX IMVI = assay: Cytotoxicity against human LOXIMVI cells; assay type: functional
EKVX = assay: Cytotoxicity against human EKVX cells; assay type: functional
MCF7 [6] = assay: Cytotoxicity against human MCF7 cells; assay type: functional
SN12C = assay: Cytotoxicity against human SN12C cells; assay type: functional
SK-MEL-5 = assay: Cytotoxicity against human SK-MEL-5 cells; assay type: functional
OVCAR-8 = assay: Cytotoxicity against human OVCAR8 cells; assay type: functional
OVCAR-5 = assay: Cytotoxicity against human OVCAR5 cells; assay type: functional
CCRF-CEM = assay: Cytotoxicity against human CCRF-CEM cells; assay type: functional
SF-295 [7] = assay: Cytotoxicity against human SF295 cells; assay type: functional
ACHN = assay: Cytotoxicity against human ACHN cells; assay type: functional
MOLT-4 = assay: Cytotoxicity against human MOLT4 cells; assay type: functional
OVCAR-4 = assay: Cytotoxicity against human OVCAR4 cells; assay type: functional
HCT-15 = assay: Cytotoxicity against human HCT15 cells; assay type: functional
[8] = Cytotoxicity against human 786-O cells; assay type: functional
SF-268 = assay: Cytotoxicity against human SF268 cells; assay type: functional
A549 [9] = assay: Cytotoxicity against human A549 cells after 48 hrs; assay type: functional, cell-based; conditions: A549, 48 h
HT-29 = assay: Cytotoxicity against human HT-29 cells; assay type: functional
SK-MEL-2 = assay: Cytotoxicity against human SK-MEL-2 cells; assay type: functional
A498 = assay: Cytotoxicity against human A498 cells; assay type: functional
KM12 = assay: Cytotoxicity against human KM12 cells; assay type: functional
MDA-MB-435 = assay: Cytotoxicity against human MDA-MB-435 cells; assay type: functional
SF-295 [10] = assay: Cytotoxicity against human SF295 cells after 1 hr compound washout; assay type: functional, cell-based; conditions: SF-295, 1 h
HOP-92 = assay: Cytotoxicity against human HOP92 cells; assay type: functional
UACC-62 = assay: Cytotoxicity against human UACC62 cells; assay type: functional
SNB-75 = assay: Cytotoxicity against human SNB75 cells; assay type: functional
[11] = read-out: pLC50 (the source's name) (converted)

CC(C)=CCC/C(C)=C/Cc1c(O)cc(/C=C/c2cc(O)c3c(c2)C[C@@H]2C(C)(C)[C@H](O)[C@H](O)C[C@@]2(C)O3)cc1O [SCHWEINFURTHIN A]
GI50 (RPMI-8226): 0.01 µM | LC50 (RPMI-8226): 75.9 µM | TGI (RPMI-8226; read-out: pTGI (converted)): 0.0209 µM | GI50 (SR): 0.0708 µM | LC50 (SR): 74.1 µM | TGI (SR; read-out: pTGI (converted)): 18.2 µM | GI50 (RXF 393): 0.01 µM | LC50 (RXF 393): 55 µM | TGI (RXF 393; read-out: pTGI (converted)): 2.09 µM | GI50 (SK-MEL-28): 4.57 µM | LC50 (SK-MEL-28): 60.3 µM | TGI (SK-MEL-28; read-out: pTGI (converted)): 24 µM | GI50 (M14): 0.0158 µM | LC50 (M14): 2.69 µM | TGI (M14; read-out: pTGI (converted)): 0.324 µM | GI50 (Malme-3M): 4.27 µM | LC50 (Malme-3M): 53.7 µM | TGI (Malme-3M; read-out: pTGI (converted)): 20 µM | IC50 (A549 [1]): 20 µg/mL (≈ 36.4 µM) | GI50 (HCC 2998): 0.501 µM | LC50 (HCC 2998): 33.1 µM | TGI (HCC 2998; read-out: pTGI (converted)): 9.77 µM | GI50 (NCI-H23): 3.24 µM | LC50 (NCI-H23): 51.3 µM | TGI (NCI-H23; read-out: pTGI (converted)): 18.2 µM | GI50 (MDA-N): 2.82 µM | CC50 (MDA-N; [11]): 61.7 µM | TGI (MDA-N; read-out: pTGI (converted)): 25.7 µM | GI50 [2]: 0.01 µM | CC50 [2, 11]: 87.1 µM | TGI ([2]; read-out: pTGI (converted)): 0.759 µM | GI50 (SW-620): 0.257 µM | LC50 (SW-620): 44.7 µM | TGI (SW-620; read-out: pTGI (converted)): 18.2 µM | GI50 (MCF7 [3]): 3.8 µM | CC50 (MCF7 [3]; [11]): 41.7 µM | TGI (MCF7 [3]; read-out: pTGI (converted)): 12.9 µM | GI50 (DU-145): 1.2 µM | CC50 (DU-145; [11]): 53.7 µM | TGI (DU-145; read-out: pTGI (converted)): 15.1 µM | GI50 (U-251): 0.0251 µM | LC50 (U-251): 49 µM | TGI (U-251; read-out: pTGI (converted)): 22.9 µM | IC50 (SF-295 [4]): < 0.01 ng/mL | GI50 (NCI-H226): 4.47 µM | LC50 (NCI-H226): 70.8 µM | TGI (NCI-H226; read-out: pTGI (converted)): 15.8 µM | GI50 (TK-10): 2.57 µM | LC50 (TK-10): 41.7 µM | TGI (TK-10; read-out: pTGI (converted)): 17 µM | GI50 (NCI-H522): 2.57 µM | LC50 (NCI-H522): 26.9 µM | TGI (NCI-H522; read-out: pTGI (converted)): 10 µM | GI50 (MDA-MB-231): 4.17 µM | CC50 (MDA-MB-231; [11]): 70.8 µM | TGI (MDA-MB-231; read-out: pTGI (converted)): 25.1 µM | IC50 (SF-295 [5]): 47 µg/mL (≈ 85.7 µM) | GI50 (HOP-62): 0.12 µM | LC50 (HOP-62): 40.7 µM | TGI (HOP-62; read-out: pTGI (converted)): 15.1 µM | GI50 (LOX IMVI): 0.038 µM | LC50 (LOX IMVI): 38.9 µM | TGI (LOX IMVI; read-out: pTGI (converted)): 17 µM | GI50 (EKVX): 0.158 µM | LC50 (EKVX): 43.7 µM | TGI (EKVX; read-out: pTGI (converted)): 15.1 µM | GI50 (MCF7 [6]): 0.0269 µM | CC50 (MCF7 [6]; [11]): 85.1 µM | TGI (MCF7 [6]; read-out: pTGI (converted)): 8.13 µM | GI50 (SN12C): 6.92 µM | LC50 (SN12C): 61.7 µM | TGI (SN12C; read-out: pTGI (converted)): 25.1 µM | GI50 (SK-MEL-5): 0.0912 µM | LC50 (SK-MEL-5): 12 µM | TGI (SK-MEL-5; read-out: pTGI (converted)): 2.82 µM | GI50 (OVCAR-8): 5.13 µM | LC50 (OVCAR-8): 57.5 µM | TGI (OVCAR-8; read-out: pTGI (converted)): 20 µM | GI50 (OVCAR-5): 6.46 µM | LC50 (concentration killing 50% of cells) (OVCAR-5): 45.7 µM | TGI (OVCAR-5; read-out: pTGI (converted)): 20 µM | GI50 (CCRF-CEM): 0.01 µM | LC50 (CCRF-CEM): 74.1 µM | TGI (CCRF-CEM; read-out: pTGI (converted)): 2.09 µM | LC50 (SF-295 [7]): 17 µM | GI50 (SF-295 [7]; read-out: GI50): 0.011 µM | TGI (SF-295 [7]; read-out: TGI): 0.052 µM | GI50 (SF-295 [7]; read-out: pGI50 (converted)): 0.011 µM | TGI (SF-295 [7]; read-out: pTGI (converted)): 0.0525 µM | GI50 (ACHN): 2.09 µM | LC50 (ACHN): 39.8 µM | TGI (ACHN; read-out: pTGI (converted)): 15.8 µM | GI50 (MOLT-4): 0.0151 µM | LC50 (MOLT-4): 57.5 µM | TGI (MOLT-4; read-out: pTGI (converted)): 1.29 µM | GI50 (OVCAR-4): 4.27 µM | LC50 (OVCAR-4): 81.3 µM | TGI (OVCAR-4; read-out: pTGI (converted)): 24 µM | GI50 (HCT-15): 1.82 µM | LC50 (HCT-15): 25.7 µM | TGI (HCT-15; read-out: pTGI (converted)): 6.03 µM | GI50 ([8]; 786-0): 0.01 µM | LC50 ([8]; 786-0): 19.1 µM | TGI ([8]; 786-0, read-out: pTGI (converted)): 3.02 µM | GI50 (SF-268): 2.4 µM | LC50 (SF-268): 74.1 µM | TGI (SF-268; read-out: pTGI (converted)): 20.9 µM | IC50 (A549 [9]): 3.7 µg/mL (≈ 6.74 µM) | GI50 (HT-29): 0.309 µM | LC50 (HT-29): 5.5 µM | TGI (HT-29; read-out: pTGI (converted)): 2.4 µM | GI50 (SK-MEL-2): 1.7 µM | LC50 (SK-MEL-2): 42.7 µM | TGI (SK-MEL-2; read-out: pTGI (converted)): 12.9 µM | GI50 (A498): 4.17 µM | LC50 (A498): 61.7 µM | TGI (A498; read-out: pTGI (converted)): 22.9 µM | GI50 (KM12): 1.51 µM | LC50 (KM12): 30.2 µM | TGI (KM12; read-out: pTGI (converted)): 14.1 µM | GI50 (MDA-MB-435): 3.8 µM | CC50 (MDA-MB-435; [11]): 74.1 µM | TGI (MDA-MB-435; read-out: pTGI (converted)): 33.1 µM | IC50 (SF-295 [10]): 0.06 µg/mL (≈ 0.109 µM) | GI50 (HOP-92): 2.57 µM | LC50 (HOP-92): 46.8 µM | TGI (HOP-92; read-out: pTGI (converted)): 15.1 µM | GI50 (UACC-62): 0.11 µM | LC50 (UACC-62): 6.31 µM | TGI (UACC-62; read-out: pTGI (converted)): 1.82 µM | GI50 (SNB-75): 0.0151 µM | LC50 (SNB-75): 50.1 µM | TGI (SNB-75; read-out: pTGI (converted)): 0.38 µM
